Data on 18 compounds can be found in patent publication US11591634B1, “Forecasting bacterial survival-success and adaptive evolution through multiomics stress-response mapping and machine learning” (priority 2019, dated 2023).

Converted amounts (≈) assume the structure as drawn.

Type in all cases: cell-based, Streptococcus pneumoniae
One assay deals with S. pneumoniae T4. As to the kind of experiment: Fitness outcome under antibiotic exposure (growth curve assay). The following applies: for Fitness: S. pneumoniae T4 wild-type, 1xMIC antibiotic, growth curves; for Survive (real survival outcome): strain T4, Adapted FALSE. The protocol:
(§1) To test whether a gene-panel model can be trained that predicts fitness for many different conditions, a large RNA-Seq dataset was generated for the human pathogen Streptococcus pneumoniae. […] These include cell wall synthesis inhibitors (CWSI), DNA synthesis inhibitors (DSI), protein synthesis inhibitors (PSI) and RNA synthesis inhibitors ((RSI); FIG. 1A, Tables 1 & 2). Each strain was exposed to each antibiotic for 2 to 4 hours and cells were harvested for RNA-Seq at various time points. As T4 and 19F are susceptible to most antibiotics used, the transcriptional profiles in the presence of antibiotics mostly represent cases of low fitness (FIG. 1A, sensitive strain, 1xMICWT). In order to find patterns that differentiate fitness outcomes, adapted strains were generated with increased fitness in the presence of antibiotics by serial passaging wildtype T4 and 19F in the presence of increasing amounts of antibiotics. Four independent adapted populations for each strain were selected on individual antibiotics. These adapted strains could grow in the presence of antibiotic at 1.5xMIC of the wildtype strain, albeit with a small growth defect (FIGS. 6A-6E & 6F). In parallel, RNA-Seq was performed on S. pneumoniae strains D39 and T4 in a chemically defined medium, and media from which either uracil, Glycine or L-Valine was removed, which are essential for D39 but not T4. This enabled the potential identification of a common stress signature that is shared between antibiotic exposure and nutrient deprivation, and across multiple strains. Lastly, D39 was adapted to grow in the absence of each individual nutrient, after which RNA-Seq was repeated for adapted clones (Table 1 lists all 24 strains, 67 populations and 267 RNA-Seq experiments).
(§2) S. pneumoniae strain TIGR4 (T4; NC_003028.3) is a serotype 4 strain originally isolated from a patient^3,4, Taiwan-19F (19F; NC_012469.1) is a multi-drug resistant strain^5,6 and D39 (NC_008533) is a commonly used serotype 2 strain originally isolated from a patient about 90 years ago^7. Strain PG1 and PG19 were isolated from adults with pneumococcal bacteremia infection and included in the Pneumococcal Bacteremia Collection Nijmegen (PBCN)^8. All S. pneumoniae gene numbers refer to the T4 genome. Correspondence between homologous genes among S. pneumoniae strains and gene function annotations are described herewith. Escherichia coli strain AR538, Klebsiella pneumoniae strain AR497 and Salmonella enterica subsp Typhimurium strain AR635 were clinical isolates obtained from the Center of Disease Control (CDC). Staphylococcus aureus strain MN6 was kindly provided by George Sakoulas (Center of Immunity, Infection & Inflammation, UCSD School of Medicine). Unless otherwise specified, S. pneumoniae strains were cultivated in Todd Hewitt medium with 5% yeast extract (THY) with 5 μL/mL oxyrase (Oxyrase, Inc) or on sheep's blood agar plates (Northeastern Laboratories) at 37° C. with 5% CO2. A. baumannii, E. coll. K. pneumoniae, S. aureus and S. Typhimurium were cultured in Mueller Hinton broth II (Sigma) at 37° C. with 220 rpm constant shaking. Tn-Seq and RNA-Seq experiments of S. pneumoniae under nutrient-depletion and antibiotic conditions were performed in chemically defined medium (CDM)^9 and semi-defined minimal medium (SDMM)^10, respectively. RNA-Seq experiments for A. baumannii, S. Typhimurium, E. coll. K. pneumoniae, and S. aureus were performed in Mueller Hinton broth II. Single strain growth assays were performed at least three times using 96-well plates by taking OD600 measurements on a Tecan Infinite 200 PRO plate reader.

Assay [1] has as its system S. pneumoniae strain TIGR4 (T4). As to the kind of experiment: Determination of relative minimal inhibitory concentration (MIC). The following applies: lowest concentration that abolishes bacterial growth, 16 hours, 37° C.; for MIC: Streptococcus pneumoniae, read-out: 1x MIC for T4. The protocol: (§3) Each concentration was tested in triplicate. Growth was monitored on a Tecan Infinite 200 PRO plate reader at 37° C. for 16 hours. MIC is determined as the lowest concentration that abolishes bacterial growth (FIGS. 6A-6H).

Another assay has as its system S. pneumoniae 19F. As to the kind of experiment: Fitness outcome under antibiotic exposure (growth curve assay). The following applies: for Fitness: S. pneumoniae 19F wild-type, growth curves; for Survive (real survival outcome): strain 19F, Adapted FALSE. The protocol: as §1, §2
Assay [2] deals with S. pneumoniae strain Taiwan-19F (19F). Put plainly: Determination of relative minimal inhibitory concentration (MIC). The following applies: for MIC: Streptococcus pneumoniae, 16 h, read-out: 1x MIC for 19F. The protocol:
as §3

Another assay concerns S. pneumoniae strain D39. Put plainly: Real survival outcome (fitness outcome) under nutrient condition. The note with it: strain D39, Adapted FALSE, Concentration NA.
The subject of assay [3] is adapted S. pneumoniae strain D39. As to the kind of experiment: Real survival outcome (fitness outcome) under nutrient condition, adapted strain. The note with it: strain D39, Adapted TRUE, Concentration NA.
Assay [4] concerns antibiotic-adapted S. pneumoniae 19F (a19F). As to the kind of experiment: Fitness outcome under antibiotic exposure (growth curve assay). The following applies: for Fitness: a19F, 19F adapted to the respective antibiotic, 1xMIC and 1.5-2xMIC, growth curves; for Survive (real survival outcome): strain 19F, Adapted TRUE. The protocol:
as §1, §2
(§4) D39 was used as the parental strain in nutrient-depletion evolution experiments; T4 and 19F were used as parental strains in antibiotic evolution experiments. […] Four replicate populations were serial passaged in CDM or SDMM as controls to identify background adaptations in nutrient or antibiotic adaptation experiments, respectively. […]

In assay [5] the test system is antibiotic-adapted S. pneumoniae T4 (aT4). The description is as above. The note with it: for Survive (real survival outcome): strain T4, Adapted TRUE. The protocol:
as §1, §2, §4

Turning to `CC1(C)S[C@@H]2[C@H](NC(=O)[C@H](N)c3ccc(O)cc3)C(=O)N2[C@H]1C(=O)O` [Amoxicillin, amoxicillin], in the assay with S. pneumoniae T4, the Fitness result is listed as “Low”. Besides, the “Survive (real survival outcome)” value in the assay with S. pneumoniae T4 (Concentration NA) is listed as “FALSE”. Moreover, the MIC in assay [1] came to 0.12 µg/mL (≈ 0.328 µM).
For `CO/N=C(\C(=O)N[C@@H]1C(=O)N2C(C(=O)[O-])=C(C[N+]3(C)CCCC3)CS[C@H]12)c1csc(N)n1` [Cefepime, cefepime], the Fitness result was “Low, and High” with S. pneumoniae 19F; “Low” in the assay on S. pneumoniae T4. Moreover, the “Survive (real survival outcome)” value with S. pneumoniae 19F (Concentration H (high)) was “FALSE”; in the assay with S. pneumoniae 19F (Concentration L (low)), “TRUE”; in the assay on S. pneumoniae T4 (Concentration L (low)), “FALSE”. In addition, the MIC in assay [1] was 0.8 µg/mL (≈ 1.66 µM); in assay [2] it was 2.2 µg/mL (≈ 4.58 µM).
Take `CO/N=C(\C(=O)N[C@@H]1C(=O)N2C(C(=O)O)=C(CSc3nc(=O)c(=O)[nH]n3C)CS[C@H]12)c1csc(N)n1` [Ceftriaxone, ceftriaxone]: the Fitness entry in the assay on S. pneumoniae T4 is on record as “Low”. For the same compound, the “Survive (real survival outcome)” value in the assay with S. pneumoniae T4 (Concentration NA) is on record as “FALSE”. In addition, the MIC in assay [1] came out at 0.007 µg/mL (≈ 0.0126 µM).
For `CCCCCCCCCC(=O)N[C@@H](Cc1c[nH]c2ccccc12)C(=O)N[C@H](CC(N)=O)C(=O)N[C@@H](CC(=O)O)C(=O)N[C@@H]1C(=O)NCC(=O)N[C@@H](CCCN)C(=O)N[C@@H](CC(=O)O)C(=O)N[C@H](C)C(=O)N[C@@H](CC(=O)O)C(=O)NCC(=O)N[C@H](CO)C(=O)N[C@@H]([C@H](C)CC(=O)O)C(=O)N[C@@H](CC(=O)c2ccccc2N)C(=O)O[C@@H]1C` [Daptomycin, daptomycin], the Fitness result in the assay on S. pneumoniae 19F and in the assay on S. pneumoniae T4 was “Low” throughout. In addition, the “Survive (real survival outcome)” value with S. pneumoniae 19F (Concentration L (low)) and with S. pneumoniae T4 (Concentration L (low)) was “FALSE” in each case. Moreover, the MIC in assay [1] and in assay [2] was 35 µg/mL (≈ 21.6 µM) in each case.
On to `NCC(=O)O` [GLY], for which the “Survive (real survival outcome)” value with S. pneumoniae strain D39 is listed as “FALSE”; in the assay with S. pneumoniae T4 (Concentration NA), “TRUE”.
Regarding `C[C@@H](O)[C@H]1C(=O)N2C(C(=O)O)=C(SCCN=CN)C[C@H]12` [Imipenem, imipenem], the MIC in assay [1] is 0.03 µg/mL (≈ 0.1 µM).
In the case of `NC[C@H]1O[C@H](O[C@H]2[C@H](O)[C@@H](O[C@H]3O[C@H](CO)[C@@H](O)[C@H](N)[C@H]3O)[C@H](N)C[C@@H]2N)[C@H](O)[C@@H](O)[C@@H]1O` [Kanamycin, kanamycin], the MIC in assay [1] and in assay [2] was 90 µg/mL (≈ 186 µM) each time.
On to `C[C@H]1COc2c(N3CCN(C)CC3)c(F)cc3c(=O)c(C(=O)O)cn1c23` [Levofloxacin, levofloxacin], for which the MIC worked out at 1 µg/mL (≈ 2.77 µM) in assay [1] and 1.1 µg/mL (≈ 3.04 µM) in assay [2].
Regarding `CC(=O)NC[C@H]1CN(c2ccc(N3CCOCC3)c(F)c2)C(=O)O1` [Linezolid, linezolid], the Fitness entry in the assay on S. pneumoniae T4 is given as “Low”. Also, in the assay on S. pneumoniae T4 (Concentration NA), the “Survive (real survival outcome)” value is reported as “FALSE”. Moreover, in assay [1], the MIC was determined as 0.5 µg/mL (≈ 1.48 µM).
As to `COc1c(N2C[C@@H]3CCCN[C@@H]3C2)c(F)cc2c(=O)c(C(=O)O)cn(C3CC3)c12` [Moxifloxacin, moxifloxacin], in assay [1], the MIC worked out at 0.45 µg/mL (≈ 1.12 µM).
For the compound `CO[C@H]1/C=C/O[C@@]2(C)Oc3c(C)c(O)c4c(O)c(c(/C=N/N5CCN(C)CC5)c(O)c4c3C2=O)NC(=O)/C(C)=C\C=C\[C@H](C)[C@H](O)[C@@H](C)[C@@H](O)[C@@H](C)[C@H](OC(C)=O)[C@@H]1C` [Rifampicin, rifampicin], the MIC in assay [1] and in assay [2] was 0.035 µg/mL (≈ 0.0425 µM) each time.
For `CN(C)[C@@H]1C(O)=C(C(N)=O)C(=O)[C@@]2(O)C(O)=C3C(=O)c4c(O)cccc4[C@@](C)(O)[C@H]3C[C@@H]12` [Tetracycline, tetracycline], the MIC in assay [1] was 8 µg/mL (≈ 18 µM); in assay [2], 22 µg/mL (≈ 49.5 µM).
As for `NC[C@H]1O[C@H](O[C@H]2[C@H](O)[C@@H](O[C@H]3O[C@H](CO)[C@@H](O)[C@H](N)[C@H]3O)[C@H](N)C[C@@H]2N)[C@H](N)C[C@@H]1O` [Tobramycin, tobramycin], in the assay with S. pneumoniae T4, the Fitness result was “Low”. The “Survive (real survival outcome)” value in the assay on S. pneumoniae T4 (Concentration NA) is “FALSE”. For the same compound, the MIC in assay [1] was found to be 175 µg/mL (≈ 374 µM).
Turning to `O=c1cc[nH]c(=O)[nH]1` [URA], the “Survive (real survival outcome)” value in assay [3] was “TRUE”; in the assay on S. pneumoniae strain D39, “FALSE”; in the assay with S. pneumoniae T4 (Concentration NA) it was “TRUE”.
As to `CC(C)[C@H](N)C(=O)O` [VAL], the results for the “Survive (real survival outcome)” value (in assay [3]; in the assay on S. pneumoniae strain D39; with S. pneumoniae T4 (Concentration NA)) were “TRUE”, “FALSE” and “TRUE”, respectively.
On to `CN[C@H](CC(C)C)C(=O)N[C@H]1C(=O)N[C@@H](CC(N)=O)C(=O)N[C@H]2C(=O)N[C@H]3C(=O)N[C@H](C(=O)N[C@H](C(=O)O)c4cc(O)cc(O)c4-c4cc3ccc4O)[C@H](O)c3ccc(c(Cl)c3)Oc3cc2cc(c3O[C@@H]2O[C@H](CO)[C@@H](O)[C@H](O)[C@H]2O[C@H]2C[C@](C)(N)[C@H](O)[C@H](C)O2)Oc2ccc(cc2Cl)[C@H]1O` [Vancomycin, vancomycin], for which the Fitness result is “Low” in the assay on S. pneumoniae 19F; “Low” in the assay with S. pneumoniae T4; “High” in assay [4]; “High” in assay [5] (aT4, T4 adapted to the respective antibiotic, 1xMIC and 1.5-2xMIC, growth curves). Moreover, the “Survive (real survival outcome)” value was “FALSE” in the assay on S. pneumoniae 19F (Concentration L (low)); “FALSE” in the assay on S. pneumoniae T4 (Concentration L (low)); “TRUE” in assay [4] (Concentration H (high)); “TRUE” in assay [4] (Concentration L (low)); “TRUE” in assay [5] (Concentration H (high)); “TRUE” in assay [5] (Concentration L (low)). The MIC in assay [1] and in assay [2] was 0.24 µg/mL (≈ 0.166 µM) throughout.
Turning to cotrimoxazole, the Fitness result in the assay with S. pneumoniae T4 is given as “Low”. Besides, the “Survive (real survival outcome)” value in the assay on S. pneumoniae T4 (Concentration NA) is reported as “FALSE”. The “1x MIC for T4” value in assay [1] came out at 6.5 µg/mL.
For penicillin, the Fitness entry in the assay on S. pneumoniae 19F is listed as “High”; in the assay with S. pneumoniae T4, “Low”; in assay [4], “High”. In addition, the “Survive (real survival outcome)” value in the assay with S. pneumoniae 19F (Concentration L (low)) is “TRUE”; with S. pneumoniae T4 (Concentration L (low)) it was “FALSE”; in assay [5] (Concentration H (high)), “TRUE”; in assay [5] (Concentration L (low)), “TRUE”. In assay [1], the “1x MIC for T4” value is 0.03 µg/mL. Further, in assay [2] (S. pneumoniae 19F, lowest concentration that abolishes bacterial growth, 16 hours, 37° C.), the “1x MIC for 19F” value was determined as 2.25 µg/mL.

Broadly, the MIC is the lowest concentration that inhibits growth of the organism.
